In patent publication US9133439B2, “Differentiation of human embryonic stem cells” (Janssen Biotech, Inc., priority 2009, dated 2015):
Several values for one entry are separate records, joined by “and”; a condition that tells them apart may be missing. Identical values can stand only once. Like-named read-outs stand apart in the source and are kept apart here.

Assays:
[1] = tested on: H1 human embryonic stem cells (differentiated); type: cell-based
[2] = tested on: H1 human embryonic stem cells (differentiated); assay: Example 3: confirmation screen, total cell number (nuclei) by high content analysis; type: cell-based; details: relative to control treatment
Description: All wells were fed and treated identically.

[3] = ratio for well treated with individual compound relative to average of wells with DMSO alone
[4] = 2.5 uM, steps 3 and 4, triplicate

| Compound | Total Nuclei [1, 3] | other results |
| --- | --- | --- |
| CC(=O)c1c(O)c(C)c(O)c(Cc2c(O)c3c(c(C(=O)/C=C/c4ccccc4)c2O)OC(C)(C)C=C3)c1O [Rottlerin] | 0.24 | – |
| COc1ccc(S(=O)(=O)N(CCO)c2ccccc2CN(C)CC=Cc2ccc(Cl)cc2)cc1 [KN-93] | 1.04 | Total Nuclei Ratio ([2]; 1 uM, steps 3 and 4): 1.05 and 1.04 |
| N#C/C(=C\c1ccc(O)c(O)c1)C(N)=S [Tyrphostin 47] | 1.00 | – |
| CNCCNS(=O)(=O)c1cccc2cnccc12 [H-8] | 0.99 | – |
| Cc1cc2ncc(-c3ccccc3)nc2cc1C [Tyrphostin AG 1295] | 1.08 | – |
| Nc1ncnc2c1c(I)cn2[C@@H]1O[C@H](CO)[C@@H](O)[C@H]1O [5-Iodotubercidin] | 0.08 | – |
| C/C(O)=C(\C#N)C(=O)Nc1cc(Br)ccc1Br [LFM-A13] | 0.97 | – |
| CN(C)CCCn1cc(C2=C(c3c[nH]c4ccccc34)C(=O)NC2=O)c2ccccc21 [GF 109203X] | 1.05 | Total Nuclei Ratio [2, 4]: 0.82 |
| CO[C@H]1C[C@@H]2CC[C@@H](C)[C@@](O)(O2)C(=O)C(=O)N2CCCC[C@H]2C(=O)O[C@H]([C@H](C)C[C@@H]2CC[C@@H](O)[C@H](OC)C2)CC(=O)[C@H](C)/C=C(\C)[C@@H](O)[C@@H](OC)C(=O)[C@H](C)C[C@H](C)/C=C/C=C/C=C/1C [Rapamycin] | 0.47 | – |
| N#CC(C#N)=Cc1ccc(O)c(O)c1 [Tyrphostin 23] | 1.03 | – |
| COc1cc2ncnc(Nc3cccc(Cl)c3)c2cc1OC [Tyrphostin AG 1478] | 1.10 | – |
| Cc1ccc(NC(=O)c2cccc(N(C)C)c2)cc1NC(=O)c1ccc(O)cc1 [ZM 336372] | 1.06 | – |
| O.O.O=c1c(O)c(-c2ccc(O)c(O)c2)oc2cc(O)cc(O)c12 [Quercetin dihydrate] | 0.97 | – |
| N#CC(C#N)=C(N)/C(C#N)=C/c1cc(O)c(O)c(O)c1 [Tyrphostin 51] | 1.04 | – |
| Cn1cnc2nc(NCCO)nc(NCc3ccccc3)c21 [iso-Olomoucine] | 1.04 | – |
| Cl.O=S(=O)(c1cccc2c(Cl)cccc12)N1CCCNCC1 [ML-9] | 1.06 | – |
| COCc1cc(O)c(O)c(O)c1-c1c(COC)cc(O)c(O)c1O [HBDDE, 2,2′,3,3′,4,4′-Hexahydroxy-1,1′-biphenyl-6,6′-dimethanol dimethyl ether] | 1.07 | – |
| CN([C@@H](Cc1ccc(OS(=O)(=O)c2cccc3cnccc23)cc1)C(=O)N1CCN(c2ccccc2)CC1)S(=O)(=O)c1cccc2cnccc12 [KN-62] | 0.96 | Total Nuclei Ratio ([2]; 1 uM, steps 3 and 4): 1.02 and 1.03 |
| COc1cc2ncc(-c3ccccc3)nc2cc1OC [AG-1296] | 1.09 | – |
| COc1cccc(-c2cc(=O)c3ccccc3o2)c1N [PD-98059] | 0.92 | Total Nuclei Ratio [2, 4]: 0.96 |
| CCCCCCCCCCCCCCCC(=O)OC(CC(=O)O)C[N+](C)(C)C.[Cl-] (racemic) [Palmitoyl-DL-carnitine Cl] | 1.05 | – |
| N#CC(=C(/N)Sc1ccccc1N)/C(C#N)=C(\N)Sc1ccccc1N [U-0126] | – | Total Nuclei [1]: 0.87 |
| Cl.Cl.O=S(=O)(NCCNC/C=C/c1ccc(Br)cc1)c1cccc2cnccc12 [H-89] | 1.09 | Total Nuclei Ratio [2, 4]: 1.08 |
| O=c1c(-c2ccc(O)cc2)coc2cc(O)ccc12 [Daidzein] | 1.03 | – |
| N#CC(C#N)=Cc1cc(O)c(O)c([N+](=O)[O-])c1 [Tyrphostin AG 1288] | 1.04 | – |
| COC(=O)/C=C/c1cc(O)ccc1O [Erbstatin analog] | 0.82 | – |

| Compound | Total Nuclei [1, 3] | other results |
| --- | --- | --- |
| N#C/C(=C\c1ccc(O)c(O)c1)C(N)=O [Tyrphostin 46] | 1.05 | – |
| NC(N)=NCCNS(=O)(=O)c1cccc2cnccc12 [HA-1004] | 1.08 | Total Nuclei Ratio [2, 4]: 1.08 |
| C[C@@H](N)[C@H]1CC[C@H](C(=O)Nc2ccncc2)CC1 [Y-27632] | 1.08 | – |
| CC(C)n1cnc2c(NCc3ccccc3)nc(NCCO)nc21 [N9-Isopropyl-olomoucine] | 1.05 | – |
| CO[C@@H]1[C@H](N(C)C(=O)c2ccccc2)C[C@H]2O[C@]1(C)n1c3ccccc3c3c4c(c5c6ccccc6n2c5c31)C(=O)NC4 [PKC-412] | 0.17 | – |
| Oc1cc(O)cc(/C=C/c2ccc(O)c(O)c2)c1 [Piceatannol] | 1.07 | – |
| COC[C@H]1OC(=O)c2coc3c2[C@@]1(C)C1=C(C3=O)[C@@H]2CCC(=O)[C@@]2(C)C[C@H]1OC(C)=O [Wortmannin] | 1.10 | – |
| CN(C)c1ccc(C=C2C(=O)Nc3ccccc32)cc1 [SU 4312] | 1.07 | – |
| COc1cc(/C=C(\C#N)C(N)=O)cc(CSc2nc3ccccc3s2)c1O [AG-825] | 1.05 | – |
| N#CC(=Cc1ccc2[nH]ccc2c1)C(N)=C(C#N)C#N [AG-370] | 1.01 | – |
| O=C(O)c1cc(N(Cc2ccccc2O)Cc2cc(O)ccc2O)ccc1O [Lavendustin A] | 1.02 | – |
| O=c1c(-c2ccc(O)cc2)coc2cc(O)cc(O)c12 [Genistein] | 1.03 | – |
| N#C/C(=C\c1cc(Cl)cc(Cl)c1)c1cccnc1 [RG-14620] | 1.02 | – |
| Cc1ccc(-c2nn(C(C)(C)C)c3ncnc(N)c23)cc1 [PP1] | 0.99 | – |
| CC(C)(C)c1cc(/C=C(\C#N)C(N)=S)cc(C(C)(C)C)c1O [AG-879] | 1.03 | – |
| Cc1cc(O)c2c(=O)c3c(O)cc(O)c4c5c(O)cc(O)c6c(=O)c7c(O)cc(C)c8c1c2c(c34)c(c78)c65 [Hypericin] | 1.07 | – |
| O=c1cc(N2CCOCC2)oc2c(-c3ccccc3)cccc12 [LY 294002] | 1.08 | Total Nuclei Ratio [2, 4]: 1.03 |
| Nc1ncc2[nH]cnc2n1 [2-Aminopurine] | 1.07 | – |
| N#C/C(=C/c1ccc(O)c(O)c1)C(=O)NCc1ccccc1 [AG-490] | 1.04 | Total Nuclei Ratio [2, 4]: 0.99 |
| N#CC(C#N)=Cc1ccc([N+](=O)[O-])c(O)c1 [AG-126] | 0.99 | – |
| CN[C@@H]1C[C@H]2O[C@@](C)([C@@H]1OC)n1c3ccccc3c3c4c(c5c6ccccc6n2c5c31)C(=O)NC4 [Staurosporine] | 0.13 | – |
| O=P(O)(O)C(O)c1ccc2ccccc2c1 (stereo not shown) [HNMPA, Hydroxy-2-naphthalenylmethylphosphonic acid] | 1.01 | – |
| O=C1Nc2ccc(I)cc2/C1=C/c1cc(Br)c(O)c(Br)c1 [GW 5074] | 1.06 | Total Nuclei Ratio [2, 4]: 1.11 |
| C=CC(=O)c1ccc2ccccc2c1 [ZM 449829] | 1.01 | – |
| CC1=C(O)C(=O)[C@@H]2O[C@@H]2C1=O [Terreic acid] | 1.02 | – |
| O=S(=O)(c1cccc2c(I)cccc12)N1CCCNCC1 [ML-7] | 0.98 | – |

| Compound | Total Nuclei [1, 3] | other results |
| --- | --- | --- |
| Cc1ccc(S(=O)(=O)/C=C/C#N)cc1 [BAY 11-7082] | 0.93 | – |
| C[S+]([O-])c1ccc(-c2nc(-c3ccc(F)cc3)c(-c3ccncc3)[nH]2)cc1 (stereo not shown) [SB-203580] | 1.07 | Total Nuclei Ratio [2, 4]: 1.05 |
| O=C1Nc2ccccc2/C1=C1/Nc2ccccc2C1=O [Indirubin] | 1.01 | – |
| N#CC(C#N)=Cc1cc(O)c(O)c(O)c1 [Tyrphostin 25] | 1.02 | – |
| O=C(O)c1cc(NCc2cc(O)ccc2O)ccc1O [HDBA, 2-Hydroxy-5-(2,5-dihydroxybenzylamino)benzoic acid] | 0.99 | – |
| C#Cc1cccc(Nc2ncnc3cc(OC)c(OC)cc23)c1 [BML-265] | 1.06 | Total Nuclei Ratio [2, 4]: 0.97 |
| OC[C@H]1O[C@@H](n2cnc3cc(Cl)c(Cl)cc32)[C@H](O)[C@@H]1O [DRB, 5,6-Dichloro-1-b-D-ribofuranosylbenzimidazole] | 1.01 | – |
| O=C1Cc2c([nH]c3ccc(Br)cc23)-c2ccccc2N1 [Kenpaullone] | 0.99 | Total Nuclei Ratio [2, 4]: 1.02 |
| CC[C@H](CO)Nc1nc(NCc2ccccc2)c2ncn(C(C)C)c2n1 [Roscovitine] | 1.03 | – |
| CC(C)c1cc(/C=C(\C#N)C(=O)NCCCc2ccccc2)cc(C(C)C)c1O [SU1498] | 1.01 | – |
| CC1CNCCN1S(=O)(=O)c1cccc2cnccc12 (stereo not shown) [H-7] | 1.02 | Total Nuclei Ratio [2, 4]: 1.09 |
| Cn1cnc2c(NCc3ccccc3)nc(NCCO)nc21 [Olomoucine] | 1.04 | – |
| Indirubin-3′-monoxime | 0.96 | – |
| CC(C)(C)n1nc(-c2ccc(Cl)cc2)c2c(N)ncnc21 [PP2] | 1.01 | – |
| Oc1ccc(-c2nc(-c3ccc(F)cc3)c(-c3ccncc3)[nH]2)cc1 [SB-202190] | 1.08 | Total Nuclei Ratio [2, 4]: 1.08 |
| N#C/C(=C\c1ccc(O)c(O)c1)C(=O)Nc1ccccc1 [AG-494] | 1.10 | – |
| Oc1c2ccccc2c2c3c(cccc13)N=N2 [SP 600125] | 1.04 | – |
| CCCCCCCCCCCCC/C=C/[C@@H](O)[C@@H](N)CO [Sphingosine] | 1.04 | – |
| O=S(=O)(c1cccc2cnccc12)N1CCCNCC1 [HA-1077] | 1.02 | Total Nuclei Ratio [2, 4]: 1.07 |
| CC(C)(C)c1cc(C=C(C#N)C#N)cc(C(C)(C)C)c1O [Tyrphostin 9] | 0.28 | – |
| CS(=O)(=O)O.Cn1cc(C2=C(c3cn(CCCSC(=N)N)c4ccccc34)C(=O)NC2=O)c2ccccc21 [Ro 31-8220] | 0.09 | – |
| CC(C)c1cnc(NC(=O)Cc2ccccc2)s1 [BML-259] | 1.04 | Total Nuclei Ratio [2, 4]: 0.99 |
| O=c1cc(-c2ccc(O)cc2)oc2cc(O)cc(O)c12 [Apigenin] | 1.05 | – |
| NCCNS(=O)(=O)c1cccc2cnccc12 [H-9] | 1.00 | Total Nuclei Ratio [2, 4]: 1.13 |
| O=C(O)c1ccc2nc(-c3ccccc3)c(-c3ccccc3)nc2c1 [BML-257] | 0.98 | – |
